According to the supplement of paper PMC10307832:

Experiments:
Test in all cases: relative viability (nuclei count vs DMSO), 5 days (fraction); higher = more cells survive
NCI-H661 = test system: NCI-H661
Outline: (§1)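 After 5 days of treatment, lung cancer cells in 1536-well plates were fixed and stained in a single step (final 0.05% Triton X-100, 1% formaldehyde, 1 ug/ml Hoechst) and their nuclei counted on 4× images. Treatment had been applied by pin tool the day after seeding as one drug alone or as a fixed anchor-drug dose with five library-drug doses (not always all listed) in √10 steps. Relative viability is the nuclei count of treated wells divided by that of vehicle wells, and values are medians of duplicate plates.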

HARA = test system: HARA
Outline: as §1

NCI-H596 = test system: NCI-H596
Outline: as §1

NCI-H1792 = test system: NCI-H1792
Outline: as §1

NCI-H1395 = test system: NCI-H1395
Outline: as §1

NCI-H1734 = test system: NCI-H1734
Outline: as §1

NCI-H2405 = test system: NCI-H2405
Outline: as §1

NCI-H2170 = test system: NCI-H2170
Outline: as §1

LOU-NH91 = test system: LOU-NH91
Outline: as §1

NCI-H2228 = test system: NCI-H2228
Outline: as §1

NCI-H647 = test system: NCI-H647
Outline: as §1

NCI-H2342 = test system: NCI-H2342
Outline: as §1

NCI-H2087 = test system: NCI-H2087
Outline: as §1

LC-2-ad = test system: LC-2-ad
Outline: as §1

SK-LU-1 = test system: SK-LU-1
Outline: as §1

HCC-827 = test system: HCC-827
Outline: as §1

BEN = test system: BEN
Outline: as §1

EKVX = test system: EKVX
Outline: as §1

NCI-H1437 = test system: NCI-H1437
Outline: as §1

SK-MES-1 = test system: SK-MES-1
Outline: as §1

NCI-H1355 = test system: NCI-H1355
Outline: as §1

NCI-H2009 = test system: NCI-H2009
Outline: as §1

Question: For `NC(=O)Nc1cc(-c2cccc(F)c2)sc1C(=O)N[C@H]1CCCNC1` [AZD7762] + CCNC(=O)c1noc(-c2cc(C(C)C)c(O)cc2O)c1-c1ccc(CN2CCOCC2)cc1 [Luminespib] (partner 0.01 µM), which relative viability (NCI-H661; first compound 0.01 µM) is on record?
Answer: 1.01

Question: And the relative viability (NCI-H661; first compound 0.03162 µM)?
Answer: 1

Question: And the relative viability (NCI-H661; first compound 0.1 µM)?
Answer: 1.02

Question: And the relative viability (NCI-H661; first compound 0.3162 µM)?
Answer: 0.971

Question: And the relative viability (NCI-H661; first compound 1 µM)?
Answer: 0.417

Question: What about the relative viability (HARA; first compound 0.01 µM) of the same compound?
Answer: 1.02

Question: What about the relative viability (HARA; first compound 0.03162 µM) of the same compound?
Answer: 0.71

Question: And the relative viability (HARA; first compound 0.1 µM)?
Answer: 0.604

Question: What about the relative viability (HARA; first compound 0.3162 µM) of the same compound?
Answer: 0.471

Question: And the relative viability (HARA; first compound 1 µM)?
Answer: 0.12

Question: And the relative viability (NCI-H596; first compound 0.01 µM)?
Answer: 0.985

Question: What about the relative viability (NCI-H596; first compound 0.03162 µM) of the same compound?
Answer: 1.02

Question: What about the relative viability (NCI-H596; first compound 0.1 µM) of the same compound?
Answer: 0.999

Question: What about the relative viability (NCI-H596; first compound 0.3162 µM) of the same compound?
Answer: 1.07

Question: And the relative viability (NCI-H596; first compound 1 µM)?
Answer: 1.03

Question: What about the relative viability (NCI-H1792; first compound 0.01 µM) of the same compound?
Answer: 0.586

Question: What about the relative viability (NCI-H1792; first compound 0.03162 µM) of the same compound?
Answer: 0.472

Question: What about the relative viability (NCI-H1792; first compound 0.1 µM) of the same compound?
Answer: 0.392

Question: What about the relative viability (NCI-H1792; first compound 0.3162 µM) of the same compound?
Answer: 0.484

Question: What about the relative viability (NCI-H1792; first compound 1 µM) of the same compound?
Answer: 0.481

Question: What about the relative viability (NCI-H1395; first compound 0.01 µM) of the same compound?
Answer: 0.699

Question: What about the relative viability (NCI-H1395; first compound 0.03162 µM) of the same compound?
Answer: 0.788

Question: What about the relative viability (NCI-H1395; first compound 0.1 µM) of the same compound?
Answer: 0.888

Question: And the relative viability (NCI-H1395; first compound 0.3162 µM)?
Answer: 0.468

Question: And the relative viability (NCI-H1395; first compound 1 µM)?
Answer: 0.341

Question: And the relative viability (NCI-H1734; first compound 0.01 µM)?
Answer: 0.219

Question: And the relative viability (NCI-H1734; first compound 0.03162 µM)?
Answer: 0.219

Question: And the relative viability (NCI-H1734; first compound 0.1 µM)?
Answer: 0.146

Question: And the relative viability (NCI-H1734; first compound 0.3162 µM)?
Answer: 0.162

Question: And the relative viability (NCI-H1734; first compound 1 µM)?
Answer: 0.157

Question: What about the relative viability (NCI-H2405; first compound 0.01 µM) of the same compound?
Answer: 0.823

Question: And the relative viability (NCI-H2405; first compound 0.03162 µM)?
Answer: 0.707

Question: And the relative viability (NCI-H2405; first compound 0.1 µM)?
Answer: 0.784

Question: And the relative viability (NCI-H2405; first compound 0.3162 µM)?
Answer: 0.672

Question: What about the relative viability (NCI-H2405; first compound 1 µM) of the same compound?
Answer: 0.33

Question: And the relative viability (NCI-H2170; first compound 0.01 µM)?
Answer: 0.644

Question: And the relative viability (NCI-H2170; first compound 0.03162 µM)?
Answer: 0.666

Question: And the relative viability (NCI-H2170; first compound 0.1 µM)?
Answer: 0.71

Question: What about the relative viability (NCI-H2170; first compound 0.3162 µM) of the same compound?
Answer: 0.833

Question: And the relative viability (NCI-H2170; first compound 1 µM)?
Answer: 0.724

Question: And the relative viability (LOU-NH91; first compound 0.01 µM)?
Answer: 0.302

Question: What about the relative viability (LOU-NH91; first compound 0.03162 µM) of the same compound?
Answer: 0.317

Question: And the relative viability (LOU-NH91; first compound 0.1 µM)?
Answer: 0.403

Question: What about the relative viability (LOU-NH91; first compound 0.3162 µM) of the same compound?
Answer: 0.309

Question: And the relative viability (LOU-NH91; first compound 1 µM)?
Answer: 0.379

Question: What about the relative viability (NCI-H2228; first compound 0.01 µM) of the same compound?
Answer: 0.139

Question: And the relative viability (NCI-H2228; first compound 0.03162 µM)?
Answer: 0.162

Question: And the relative viability (NCI-H2228; first compound 0.1 µM)?
Answer: 0.165

Question: What about the relative viability (NCI-H2228; first compound 0.3162 µM) of the same compound?
Answer: 0.133

Question: What about the relative viability (NCI-H2228; first compound 1 µM) of the same compound?
Answer: 0.125

Question: What about the relative viability (NCI-H647; first compound 0.01 µM) of the same compound?
Answer: 0.118

Question: And the relative viability (NCI-H647; first compound 0.03162 µM)?
Answer: 0.163

Question: What about the relative viability (NCI-H647; first compound 0.1 µM) of the same compound?
Answer: 0.0996

Question: What about the relative viability (NCI-H647; first compound 0.3162 µM) of the same compound?
Answer: 0.119

Question: What about the relative viability (NCI-H647; first compound 1 µM) of the same compound?
Answer: 0.101

Question: What about the relative viability (NCI-H2342; first compound 0.01 µM) of the same compound?
Answer: 0.69

Question: What about the relative viability (NCI-H2342; first compound 0.03162 µM) of the same compound?
Answer: 0.696

Question: What about the relative viability (NCI-H2342; first compound 0.1 µM) of the same compound?
Answer: 0.731

Question: And the relative viability (NCI-H2342; first compound 0.3162 µM)?
Answer: 0.819

Question: What about the relative viability (NCI-H2342; first compound 1 µM) of the same compound?
Answer: 0.676

Question: What about the relative viability (NCI-H2087; first compound 0.01 µM) of the same compound?
Answer: 0.203

Question: And the relative viability (NCI-H2087; first compound 0.03162 µM)?
Answer: 0.145

Question: And the relative viability (NCI-H2087; first compound 0.1 µM)?
Answer: 0.237

Question: What about the relative viability (NCI-H2087; first compound 0.3162 µM) of the same compound?
Answer: 0.173

Question: And the relative viability (NCI-H2087; first compound 1 µM)?
Answer: 0.162

Question: What about the relative viability (LC-2-ad; first compound 0.01 µM) of the same compound?
Answer: 1.27

Question: What about the relative viability (LC-2-ad; first compound 0.03162 µM) of the same compound?
Answer: 1.09

Question: And the relative viability (LC-2-ad; first compound 0.1 µM)?
Answer: 1.05

Question: What about the relative viability (LC-2-ad; first compound 0.3162 µM) of the same compound?
Answer: 0.991

Question: And the relative viability (LC-2-ad; first compound 1 µM)?
Answer: 0.646

Question: What about the relative viability (SK-LU-1; first compound 0.01 µM) of the same compound?
Answer: 0.193

Question: What about the relative viability (SK-LU-1; first compound 0.03162 µM) of the same compound?
Answer: 0.209

Question: What about the relative viability (SK-LU-1; first compound 0.1 µM) of the same compound?
Answer: 0.192

Question: What about the relative viability (SK-LU-1; first compound 0.3162 µM) of the same compound?
Answer: 0.206

Question: What about the relative viability (SK-LU-1; first compound 1 µM) of the same compound?
Answer: 0.123

Question: And the relative viability (HCC-827; first compound 0.01 µM)?
Answer: 0.598

Question: And the relative viability (HCC-827; first compound 0.03162 µM)?
Answer: 0.677

Question: What about the relative viability (HCC-827; first compound 0.1 µM) of the same compound?
Answer: 0.604

Question: What about the relative viability (HCC-827; first compound 0.3162 µM) of the same compound?
Answer: 0.459

Question: What about the relative viability (HCC-827; first compound 1 µM) of the same compound?
Answer: 0.213

Question: And the relative viability (BEN; first compound 0.01 µM)?
Answer: 0.16

Question: What about the relative viability (BEN; first compound 0.03162 µM) of the same compound?
Answer: 0.665

Question: And the relative viability (BEN; first compound 0.1 µM)?
Answer: 0.188

Question: What about the relative viability (BEN; first compound 0.3162 µM) of the same compound?
Answer: 0.43

Question: What about the relative viability (BEN; first compound 1 µM) of the same compound?
Answer: 0.533

Question: What about the relative viability (EKVX; first compound 0.01 µM) of the same compound?
Answer: 0.827

Question: And the relative viability (EKVX; first compound 0.03162 µM)?
Answer: 0.88

Question: And the relative viability (EKVX; first compound 0.1 µM)?
Answer: 0.826

Question: And the relative viability (EKVX; first compound 0.3162 µM)?
Answer: 0.82

Question: What about the relative viability (EKVX; first compound 1 µM) of the same compound?
Answer: 0.65

Question: What about the relative viability (NCI-H1437; first compound 0.01 µM) of the same compound?
Answer: 1.17

Question: And the relative viability (NCI-H1437; first compound 0.03162 µM)?
Answer: 1.18

Question: What about the relative viability (NCI-H1437; first compound 0.1 µM) of the same compound?
Answer: 1.2

Question: What about the relative viability (NCI-H1437; first compound 0.3162 µM) of the same compound?
Answer: 1.13

Question: What about the relative viability (NCI-H1437; first compound 1 µM) of the same compound?
Answer: 0.79

Question: And the relative viability (SK-MES-1; first compound 0.01 µM)?
Answer: 1.08

Question: And the relative viability (SK-MES-1; first compound 0.03162 µM)?
Answer: 0.715

Question: And the relative viability (SK-MES-1; first compound 0.1 µM)?
Answer: 0.38

Question: What about the relative viability (SK-MES-1; first compound 0.3162 µM) of the same compound?
Answer: 0.19

Question: What about the relative viability (SK-MES-1; first compound 1 µM) of the same compound?
Answer: 0.175

Question: And the relative viability (NCI-H1355; first compound 0.01 µM)?
Answer: 0.709

Question: And the relative viability (NCI-H1355; first compound 0.03162 µM)?
Answer: 0.751

Question: And the relative viability (NCI-H1355; first compound 0.1 µM)?
Answer: 0.812

Question: And the relative viability (NCI-H1355; first compound 0.3162 µM)?
Answer: 0.717

Question: What about the relative viability (NCI-H1355; first compound 1 µM) of the same compound?
Answer: 0.581

Question: What about the relative viability (NCI-H2009; first compound 0.01 µM) of the same compound?
Answer: 1.06

Question: What about the relative viability (NCI-H2009; first compound 0.03162 µM) of the same compound?
Answer: 0.975

Question: And the relative viability (NCI-H2009; first compound 0.1 µM)?
Answer: 1.12

Question: What about the relative viability (NCI-H2009; first compound 0.3162 µM) of the same compound?
Answer: 0.935

Question: And the relative viability (NCI-H2009; first compound 1 µM)?
Answer: 0.663
